The values below are quoted from earlier work in patent publication US20190105343A1, “Treatment of Skin Conditions and Diseases Associated with Microbial Biofilms” (Bioclenz PH LLC, priority 2016, published 2019).

The conditions of data set [1]: aqueous solutions at 37° C.
The subject of the next data set is Pseudomonas aeruginosa. The settings on record: pH 5.0-6.0.
The subject of data set [2] is aerobic and anaerobic gram-positive bacteria. The settings on record: broth and biofilm cultures.

Structures are written as SMILES. Converted amounts (≈) assume the structure as drawn.

Consider `CCCCCCCCCCCC(=O)OCC(O)CO` (stereo not shown) [GML, glycerol monolaurate], for which the solubility limit in data set [1] is 0.1 mg/mL (≈ 364 µM). In the data set on Pseudomonas aeruginosa, the killing entry was “killed”. For the same molecule, the bactericidal activity result in data set [2] is reported as “bactericidal”. For the same molecule, in the data set with Gram-negative anaerobes, the susceptibility entry is reported as “susceptible”.
